# Entries after “also recorded” stand apart in the source; their conditions may differ. Where a SMILES comes first, the peptide text is derived from it.
# Key:
# [1] = system: Escherichia coli ATCC 25922; assay: Antimicrobial susceptibility testing (MIC/MBC), Example 1; type: cell-based; details: Table 3; footnote: wild-type Escherichia coli ATCC 29522; minimum of three independent experiments
# Description: Twenty-one putative AMP sequences identified using the rAMPage pipeline were validated through a minimum of three AST experiments performed independently on separate days. In these tests, the AMP activity was assessed using two metrics: minimum inhibitory concentration and minimum bactericidal concentration (MIC and MBC, respectively). MIC and MBC values were determined using procedures outlined by the Clinical and Laboratory Standards Institute (CLSI), with the recommended adaptations for the testing of cationic AMPs described previously. “Wild-type” strains of Escherichia coli (E. coli 25922) and Staphylococcus aureus (S. aureus 29213) were purchased from the American Type Culture Collection (ATCC; Manassas, VA, USA) and were used for screening of antimicrobial activity. Briefly, putative AMPs were synthesized by Genscript (Piscataway, NJ, USA) and received in lyophilized format. These peptides were suspended using ultrapure water (Life Technologies, Grand Island, NY, USA; Invitrogen cat #10977-015), and an 11 μL two-fold serial dilution of 1280 to 2.5 μg/mL was prepared in duplicate rows in a 96-well microtiter plate, before being combined with 100 μL standardized bacterial inoculum yielding a final duplicate testing range of 128 to 0.25 μg/mL. The bacterial inoculum was prepared using colonies isolated on non-selective agar and combined with Mueller Hinton Broth. This suspension was measured and adjusted to achieve an optical density of 0.08-0.1, equivalent to a 0.5 McFarland standard (1-2×10^8 cfu/mL). The inoculum was then diluted to a target concentration of 5±3×10^5 cfu/mL; total viable counts from the final inoculum were routinely performed to confirm the target bacterial density was achieved. […] The MIC and adjacent wells were plated onto non-selective agar; the concentration in which killed 99.9% of the inoculum following additional overnight incubation was determined to be the MBC.
# [2] = system: E. coli ATCC 25922, Salmonella Enteritidis, S. aureus ATCC 29213; assay: Broth microdilution, panel result (at least one / all strains), Example 2; type: cell-based; parameters: key to inhibitory activity (asterisk): *Indicates inhibitory activity; details: Table 14; against at least one of E. coli ATCC 25922, Salmonella Enteritidis, S. aureus ATCC 29213
# In short: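 CLSI broth microdilution adapted for cationic peptides, in MHB with a final inoculum of 2-8×10^5 cfu/mL in polypropylene plates. Peptides were serially diluted from 128 down to 0.5 μg/mL and incubated 20-24 h at 37° C. MIC is the lowest concentration with no visible growth.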
# E. coli ATCC 25922 = type: cell-based, Escherichia coli; details: Table 14, first value of the cell; three independent experiments; highest concentration tested 128
# In short: (§1)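 MIC taken as lowest peptide level showing no visible growth after 20-24 h at 37° C. Twofold series 128-0.5 μg/mL in Mueller-Hinton broth, polypropylene plates, final inoculum 2-8×10^5 cfu/mL, per CLSI with cationic-peptide adaptations.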
# porcine red blood cells = assay: Hemolysis assay (HC50), Example 2; details: up to 128 μg/mL
# Description: Peptides were evaluated for toxicity using three independent hemolysis experiments. Whole blood from healthy donor pigs, supplemented with Na Citrate, was purchased from Lampire Biological Laboratories (Pipersville, PA, USA). Red blood cells (RBCs) were washed and isolated by three centrifugation cycles using Roswell Park Memorial Institute medium (RPMI; Thermo-Fisher Scientific) to create a 1% (v/v) RBC solution. […] Following a minimum 30 min incubation at 37° C., plates were centrifuged and % volume from each supernatant was transferred to a new 96-well plate. The absorbance of these wells was measured at 415 nm. To quantify hemolytic activity and determine the AMP concentration that lyses 50% of the RBCs (HC50), absorbance reading from wells containing RBCs treated with 11 μL of a 2% TritonX-100 detergent solution (TX-100) or RPMI (AMP solvent-only) were used to define 100% and 0% hemolysis, respectively. All centrifugation steps were performed at 500× g for five minutes in an Allegra-6R centrifuge (Beckman Coulter, Brea, CA, USA).
# S. aureus ATCC 29213 = type: cell-based, Staphylococcus aureus; details: Table 14, third value of the cell; three independent experiments; highest concentration tested 128
# In short: as §1
# HEK293 cells = assay: alamarBlue cell viability assay (cytotoxicity); type: cell-based, human; details: concentrations up to 128 μg/mL
# Description: The human embryonic kidney cell line HEK293 and the corresponding growth media and supplements were purchased from the ATCC. The cells were maintained in Eagle's Minimum Essential Medium (EMEM) supplemented with 10% fetal bovine serum (FBS) and 1% Penicillin-Streptomycin solution and grown in a 5% CO2 incubator at 37° C. […] Cells were incubated overnight to allow them to adhere. […] TX-100 was diluted to 2% in UltraPure deionized water and added as a positive control. Complete growth medium was added to the peptides and TX-100 containing wells. Spent growth medium of wells with adhered cells was replaced with the contents of wells containing serially diluted peptides or TX-100. Cells were incubated for four hours at 37° C. in 5% CO2 incubator. Growth medium containing peptides or TX-100 was replaced with fresh growth medium containing 10% (v/v) alamarBlue (Bio-Rad Laboratories, Hercules, CA, USA) and incubated for 20 h. Fluorescence was measured at excitation of 540 nm and emission of 590 nm in a Cytation 5 plate reader (Agilent BioTek, Winooski, VT, USA) and results recorded and analyzed with Gen5 software (Agilent BioTek, Winooski, VT, USA). The average fluorescence reads of TX-100 and growth media only wells were used to calculate 0% and 100% cell viability, respectively. The percentage of viable cells at each peptide concentration was determined by Formula 1: […]
# [3] = system: Staphylococcus aureus ATCC 29213; type: cell-based; details: Table 3; wild-type Staphylococcus aureus ATCC 29213; minimum of three independent experiments
# Description: Twenty-one putative AMP sequences identified using the rAMPage pipeline were validated through a minimum of three AST experiments performed independently on separate days. In these tests, the AMP activity was assessed using two metrics: minimum inhibitory concentration and minimum bactericidal concentration (MIC and MBC, respectively). MIC and MBC values were determined using procedures outlined by the Clinical and Laboratory Standards Institute (CLSI), with the recommended adaptations for the testing of cationic AMPs described previously. “Wild-type” strains of Escherichia coli (E. coli 25922) and Staphylococcus aureus (S. aureus 29213) were purchased from the American Type Culture Collection (ATCC; Manassas, VA, USA) and were used for screening of antimicrobial activity. Briefly, putative AMPs were synthesized by Genscript (Piscataway, NJ, USA) and received in lyophilized format. […] This suspension was measured and adjusted to achieve an optical density of 0.08-0.1, equivalent to a 0.5 McFarland standard (1-2×10^8 cfu/mL). […]
# [4] = system: Salmonella enterica serovar Enteritidis (human clinical isolate); type: cell-based
# In short: as §1
SMILES,MIC* (μg/mL) E. coli [1] [µg⁻¹ mL⁻¹],inhibitory activity (asterisk) [2],further results
CC[C@H](C)[C@H](NC(=O)CNC(=O)[C@H](C)NC(=O)[C@@H](NC(=O)[C@H](CC(N)=O)NC(=O)[C@H](CCCCN)NC(=O)[C@H](C)NC(=O)[C@H](C)NC(=O)CNC(=O)[C@H](CCCCN)NC(=O)[C@@H](NC(=O)[C@@H](NC(=O)[C@H](CC(=O)O)NC(=O)[C@H](CC(C)C)NC(=O)[C@H](CC(C)C)NC(=O)[C@H](CC(C)C)NC(=O)CN)[C@@H](C)O)C(C)C)C(C)C)C(=O)N[C@@H](CC(C)C)C(=O)N[C@@H](CC(C)C)C(=O)N[C@@H](CC(N)=O)C(=O)N[C@@H](CCCCN)C(=O)N[C@@H](CC(C)C)C(=O)N[C@@H](CCCCN)C(=O)N[C@@H](CS)C(=O)N[C@@H](CCCCN)C(=O)N[C@H](C(=O)N[C@H](C(=O)NCC(=O)N[C@@H](CC(=O)O)C(=O)N[C@@H](CS)C(=O)O)[C@@H](C)O)C(C)C [PeNi10] (H-GLLLDTVKGAAKNVAGILLNKLKCKVTGDC-OH; N-terminus and C-terminus assumed),8,1086.* GLLLDTVKGAAKNVAGILLNKLKCKVTGDC,–
CC[C@H](C)[C@H](NC(=O)[C@H](CCCCN)NC(=O)[C@H](CS)NC(=O)[C@H](CCCCN)NC(=O)[C@H](CC(C)C)NC(=O)[C@H](CC(N)=O)NC(=O)[C@H](Cc1ccc(O)cc1)NC(=O)[C@H](CC(C)C)NC(=O)[C@H](CC(C)C)NC(=O)[C@@H](NC(=O)[C@@H](NC(=O)[C@H](C)NC(=O)[C@@H](NC(=O)[C@H](CC(N)=O)NC(=O)[C@H](CCCCN)NC(=O)[C@H](C)NC(=O)[C@@H](NC(=O)[C@H](CC(N)=O)NC(=O)[C@H](CCCCN)NC(=O)[C@H](C)NC(=O)[C@@H](NC(=O)[C@H](CC(=O)O)NC(=O)[C@H](CCSC)NC(=O)[C@H](Cc1ccccc1)NC(=O)CN)[C@@H](C)O)C(C)C)C(C)C)C(C)C)[C@@H](C)O)C(=O)N[C@H](C(=O)N[C@@H](CCCCN)C(=O)N[C@@H](C)C(=O)N[C@@H](CS)C(=O)O)[C@@H](C)O [OdMa12] (H-GFMDTAKNVAKNVAVTLLYNLKCKITKAC-OH; N-terminus and C-terminus assumed),4,69.* GFMDTAKNVAKNVAVTLLYNLKCKITKAC,–
CC[C@H](C)[C@H](NC(=O)CN)C(=O)N[C@@H](CC(C)C)C(=O)N[C@@H](CC(=O)O)C(=O)N[C@H](C(=O)N[C@@H](CC(C)C)C(=O)N[C@@H](CCCCN)C(=O)N[C@@H](CCC(N)=O)C(=O)N[C@@H](CC(C)C)C(=O)NCC(=O)N[C@@H](CCCCN)C(=O)N[C@@H](C)C(=O)N[C@@H](C)C(=O)N[C@H](C(=O)N[C@@H](CCC(N)=O)C(=O)NCC(=O)N[C@@H](CC(C)C)C(=O)N[C@@H](CC(C)C)C(=O)N[C@@H](CO)C(=O)N[C@@H](CCCCN)C(=O)N[C@@H](C)C(=O)N[C@@H](C)C(=O)N[C@@H](CS)C(=O)N[C@@H](CCCCN)C(=O)N[C@@H](CC(C)C)C(=O)N[C@@H](C)C(=O)N[C@@H](CCCCN)C(=O)N[C@H](C(=O)N[C@@H](CS)C(=O)O)[C@@H](C)O)C(C)C)[C@@H](C)O [AmMa1] (H-GILDTLKQLGKAAVQGLLSKAACKLAKTC-OH; N-terminus and C-terminus assumed),2 to 4,12.* GILDTLKQLGKAAVQGLLSKAACKLAKTC,–
CC[C@H](C)[C@H](NC(=O)CN)C(=O)N[C@@H](CC(C)C)C(=O)N[C@H](C(=O)N[C@@H](CC(=O)O)C(=O)N[C@H](C(=O)N[C@@H](CC(C)C)C(=O)N[C@@H](CCCCN)C(=O)NCC(=O)N[C@@H](C)C(=O)N[C@@H](C)C(=O)N[C@@H](CCCCN)C(=O)N[C@@H](CC(N)=O)C(=O)N[C@H](C(=O)N[C@@H](C)C(=O)NCC(=O)N[C@H](C(=O)N[C@@H](CC(C)C)C(=O)N[C@@H](CC(C)C)C(=O)N[C@@H](CC(=O)O)C(=O)N[C@@H](CCCCN)C(=O)N[C@@H](CC(C)C)C(=O)N[C@@H](CCCCN)C(=O)N[C@@H](CS)C(=O)N[C@@H](CCCCN)C(=O)N[C@H](C(=O)N[C@H](C(=O)NCC(=O)NCC(=O)N[C@@H](CS)C(=O)O)[C@@H](C)O)[C@@H](C)CC)C(C)C)C(C)C)[C@@H](C)O)[C@@H](C)O [PeNi11] (H-GILTDTLKGAAKNVAGVLLDKLKCKITGGC-OH; N-terminus and C-terminus assumed),8 to 16,1087.* GILTDTLKGAAKNVAGVLLDKLKCKITGGC,–
CC[C@H](C)[C@H](NC(=O)[C@H](CCCCN)NC(=O)[C@H](CC(=O)O)NC(=O)[C@H](CC(C)C)NC(=O)[C@@H](NC(=O)CNC(=O)[C@@H](NC(=O)[C@H](CO)NC(=O)[C@H](Cc1ccccc1)NC(=O)[C@H](CC(N)=O)NC(=O)[C@H](CCCCN)NC(=O)[C@@H](NC(=O)CNC(=O)[C@H](CCC(=O)O)NC(=O)[C@H](CCCCN)NC(=O)[C@@H](NC(=O)[C@@H](NC(=O)[C@@H](NC(=O)[C@H](Cc1c[nH]c2ccccc12)NC(=O)[C@H](CC(C)C)NC(=O)CN)[C@@H](C)O)[C@@H](C)O)[C@@H](C)CC)C(C)C)C(C)C)C(C)C)C(=O)N[C@@H](CCCNC(=N)N)C(=O)N[C@@H](CS)C(=O)N[C@@H](CCCCN)C(=O)N[C@H](C(=O)N[C@H](C(=O)NCC(=O)NCC(=O)N[C@@H](CS)C(=O)O)[C@@H](C)O)[C@@H](C)CC [PeNi14] (H-GLWTTIKEGVKNFSVGVLDKIRCKITGGC-OH; N-terminus and C-terminus assumed),4 to 8,15.* GLWTTIKEGVKNFSVGVLDKIRCKITGGC,–
CC(C)C[C@H](NC(=O)[C@H](CCCCN)NC(=O)[C@H](CCC(=O)O)NC(=O)[C@H](CC(C)C)NC(=O)[C@H](CCCNC(=N)N)NC(=O)[C@@H](NC(=O)[C@H](Cc1ccc(O)cc1)NC(=O)[C@H](CC(N)=O)NC(=O)[C@H](CCCCN)NC(=O)[C@H](CCCCN)NC(=O)[C@H](CC(N)=O)NC(=O)[C@@H](NC(=O)[C@H](CC(C)C)NC(=O)[C@H](CCCCN)NC(=O)[C@H](CCCCN)NC(=O)[C@@H](NC(=O)[C@H](CO)NC(=O)[C@H](CCCCN)NC(=O)[C@H](CO)NC(=O)[C@H](CC(C)C)NC(=O)[C@H](Cc1c[nH]c2ccccc12)NC(=O)[C@@H](N)CO)C(C)C)C(C)C)[C@@H](C)O)C(=O)N[C@@H](C)C(=O)N[C@@H](CCCCN)C(=O)N[C@@H](CCCCN)C(=O)N[C@@H](CCCCN)C(=O)N[C@@H](CC(C)C)C(=O)N[C@@H](Cc1ccccc1)C(=O)N[C@@H](CC(N)=O)C(=O)N[C@@H](CCC(=O)O)C(=O)O [TeRu4] (H-SWLSKSVKKLVNKKNYTRLEKLAKKKLFNE-OH),–,–,"MIC (ug/mL) E. coli (E. coli ATCC 25922): 1 µg/mL; hemolytic activity (porcine red blood cells): not hemolytic at the concentrations tested; also recorded: not toxic against either porcine erythrocytes or HEK293 cells; MIC (ug/mL) S. aureus (S. aureus ATCC 29213): > 128 µg/mL; cytotoxicity (HEK293 cells): not to be toxic to HEK293 cells at any of the concentrations tested; also recorded: not toxic against either porcine erythrocytes or HEK293 cells; MIC* (μg/mL) S. aureus [3]: >128 µg/mL; MIC against Salmonella Enteritidis [4]: 2 to 4 µg/mL; MIC (ug/mL) S. Enteritidis ([4]; Table 14, second value of the cell, three independent experiments, highest concentration tested 128): 2 to 4 µg/mL"
